Results reported in patent EP0194571A1, “Heterocyclic disulfides, process for their preparation and pharmaceutical preparations containing them” (HOECHST AKTIENGESELLSCHAFT, priority 1985, dated 1986).

Tests used:
Type in all cases: in vivo, NMRI-Mäuse
[1] = system: Maus-Peritonealmakrophagen; test: Activation of mononuclear phagocytes: oxidative metabolism (chemiluminescence) of peritoneal macrophages from treated mice; conditions: relative to maximal activation by compound of Beispiel 8 = 100 %; 100 mg/kg i.p.
Description: (§1) Hier wurde der Einfluß der nach Ausführungsbeispiel 8 erhaltenen Prüfsubstanz auf die Stimulation von Peritonealmakrophagen bei 6- 8 Wochen alten NMRI-Mäusen untersucht. Mäuseweibchen erhielten auf parenteralem oder oralem Wege die Prüfsubstanz in einer Dosis von 25 mg/kg, 50 mg/kg, 100 mg/kg und 200 mg/kg. Der Kontrollgruppe wurde gepufferte Kochsalzlösung verabreicht. Drei Tage nach den Injektionen wurden die Mäuse getötet, und es wurden die Peritonealmakrophagen der Tiere auf ihren Aktivierungszustand hin untersucht. Als Maß der Makrophagenaktivierung wurde zum einen die Sekretion der lyosomalen Enzyme (ß-Galactosidase, ß-Glucuronidase, N-Acetyl-ß-D-Glucosaminidase) bestimmt. Auf der anderen Seite konnte in vergleichbaren Makrophagenkulturen die Pinozytose durch die Aufnahme von kolloidalem Gold (^19^8Au) - wie sie dem Fachmann bekannt ist - untersucht werden. Die Höhe des oxidativen Stoffwechsels bei Makrophagen gilt als ein weiteres Maß für ihren Aktivierungszustand. Gemessen wird diese Aktivität unter Zuhilfenahme des Biolumaten durch Bestimmung der Chemolumineszenz.
(§2) Zu diesem Zweck wurden entweder in Petrischalen von 30 mm Durchmesser 3 x 10^6 Makrophagen mit 1 ml TC 199-Kulturmedium oder aber 10^6 Makrophagen mit 100 µl in Rundbogen-Polyäthylen-Röhrchen (zur Bestimmung der Chemolumineszenz) bei 5 % G02 und 37°C kultiviert.
(§3) Nach einstündiger Bebrütung wurden die Kulturen gewaschen, um schwimmende Zellen zu entfernen. Die Chemolumineszenz (Röhrchenkultur) wurde dann direkt bestimmt, während die Petrischalen erneut 24 Stunden bei 37°C bebrütet wurden und danach die Enzym- und Pinozytoseaktivität in den Kulturen bestimmt wurde. Es wurden die nachstehenden Ergebnisse erzielt.
Die parenterale sowie die orale Behandlung von NMRI-Mäusen mit der gemäß Beispiel 8 hergestellten Prüfsubstanz stimuliert die Makrophagenaktivität und hat damit eine immunitätstimulierende Wirkung. So wird der oxidative Stoffwechsel bei Makrophagen mit der Generierung von Sauerstoffradikalen und dem damit verbundenen meßbaren Licht deutlich erhöht. Bei Dosierungen von 25 mg/kg aufwärts kommt es zu einer dosisabhänigen Steigerung der Makrophagenaktivität sowohl bei parenteraler als auch oraler Applikation.
(§4) Wie im Experiment 2 beschrieben, wurden NMRI-Mäuse mit den erfindungsgemäßen Verbindungen behandelt.
(§5) Als Test zur Erfassung der Immunstimulation wurde die Funktion der Makrophagen (Chemolumineszenz und Enzymaktivität) überprüft.
(§6) Tabelle 8 zeigt die relative Wirksamkeit der Prüfsubstanzen bezogen auf die Verbindung aus Beispiel 8, deren maximale Aktivierung (Differenz zwischen Kontrolle und Stimulation) 100 % entspricht. Der Tabelle ist zu entnehmen, daß im Vergleich zu Makrophagen aus unbehandelten Tieren, diese Zellen auch durch alle Prüfsubstanzen in ihrer Chemolumineszenzreaktion stark stimuliert und in ihrem Gehalt an lysosomalen Enzymen deutlich erhöht waren.

[2] = system: Maus-Peritonealmakrophagen; test: Activation of mononuclear phagocytes: release of lysosomal hydrolases (exocytosis) by peritoneal macrophages from treated mice; conditions: lysosomal enzyme activity, relative to maximal activation by compound of Beispiel 8 = 100 %; 100 mg/kg i.p.
Description: as §1, §2, §3
Aus der Tabelle 3 ist zu entnehmen, daß Makrophagen von Kontrollmäusen nur geringe Mengen an lysosomalen Enzymen (ß-Glucuronidase, ß-Galactosidase, N-Acetyl-ß-D-Glucosaminidase) in den Kulturüberstand abgeben. Mononukleare Phagozyten von Mäusen, die parenteral oder oral mit der Prüfsubstanz 72 Stunden behandelt wurde, sezernieren die o.a. sauren Hydrolasen (ß-Glu, ß-Gal, N-Ac-Glu) deutlich mehr und weisen damit eine Dosiswirkungskurve auf, die bei allen gemessenen Enzymen eine Überlegenheit gegenüber den Kontrollen erkennen läßt. Es ist ersichtlich, daß die Prüfsubstanz eine stimulierende Wirkung auf die Makrophagenaktivität besitzt und zur Erhöhung der Enzymfreisetzung beiträgt.
as §4, §5, §6

[3] = system: zelluläre Immunantwort (DTH-Reaktion) gegen Schafserythrozyten; test: Delayed type hypersensitivity (DTH) reaction against sheep erythrocytes, foot swelling in mice; conditions: relative to maximal activation by compound of Beispiel 8 = 100 %, 1 x i.p. Tag 0

Oc1nc(SSc2nc(O)nn2-c2ccccc2)n(-c2ccccc2)n1 [Beispiel 1, Bis-(3-Hydroxy-1-phenyl-1,2,4-triazol-5-yl)-disulfid]
Makrophagenaktivität Chemolumineszenz [1]: 30%
Makrophagenaktivität Exozytose [2]: 48%

O=C(O)c1ccc2nc(SSc3nc4ccc(C(=O)O)cc4[nH]3)[nH]c2c1 [Beispiel 2, Bis-(5-Carboxy-benzimidazol-2-yl)-disulfid]
Makrophagenaktivität Chemolumineszenz [1]: 72%
Makrophagenaktivität Exozytose [2]: 53%
DTH-Reaktion (SRBC) ([3]; Dosis 20 mg/kg): 88%

C=C(Cl)Cn1c(SSc2nnc(O)c(=O)n2CC(=C)Cl)nnc(O)c1=O [Beispiel 5]
Makrophagenaktivität Chemolumineszenz [1]: 37%
Makrophagenaktivität Exozytose [2]: 45%
DTH-Reaktion (SRBC) ([3]; Dosis 200 mg/kg): 61%

Cn1nc(O)c(=O)nc1SSc1nc(=O)c(O)nn1C [Beispiel 6]
Makrophagenaktivität Chemolumineszenz [1]: 26%
Makrophagenaktivität Exozytose [2]: 33%
DTH-Reaktion (SRBC) ([3]; Dosis 100 mg/kg): 100%

O=C(O)Cc1csc(SSc2nc(CC(=O)O)cs2)n1 [Beispiel 10, Bis-(4-Carboxymethyl-1,3-thiazol-2-yl)-disulfid]
Makrophagenaktivität Chemolumineszenz [1]: 66%
Makrophagenaktivität Exozytose [2]: 21%
DTH-Reaktion (SRBC) ([3]; Dosis 10 mg/kg): 112%

O=C(O)c1cnc(SSc2ncc(C(=O)O)s2)s1 [Beispiel 12, Bis-(5-Carboxy-1,3-thiazol-2-yl)-disulfid]
Makrophagenaktivität Chemolumineszenz [1]: 39%
Makrophagenaktivität Exozytose [2]: 54%
DTH-Reaktion (SRBC) ([3]; Dosis 100 mg/kg): 96%

Cc1nc(SSc2nc(C)c(C(=O)O)s2)sc1C(=O)O [Beispiel 13]
Makrophagenaktivität Chemolumineszenz [1]: 81%
Makrophagenaktivität Exozytose [2]: 77%
DTH-Reaktion (SRBC) ([3]; Dosis 200 mg/kg): 147%

Cc1sc(SSc2nc(CC(=O)O)c(C)s2)nc1CC(=O)O [Beispiel 14, Bis-(4-Carboxymethyl-5-methyl-thiazol-2-yl)-disulfid]
Makrophagenaktivität Chemolumineszenz [1]: 97%
Makrophagenaktivität Exozytose [2]: 93%
DTH-Reaktion (SRBC) ([3]; Dosis 100 mg/kg): 118%
